Test results from the Kinase Knowledgebase extract (Sharma et al. 2016).

Biological target: CDK2 (human) (UniProt P24941)
Assay: Enzyme Assay

**Q.** For `CCc1[nH]c(=O)c(-c2csc(-c3ccncc3)n2)cc1C(=O)OCCN1CCCC1`, which IC50 is on record?
**A.** < 0.5 µM

**Q.** Which IC50 does the source give for `CCOC(=O)c1cc(-c2csc(-c3ccnc(NCCNC(C)C)c3)n2)c(=O)[nH]c1C` here?
**A.** < 0.5 µM

**Q.** Which IC50 does the source give for `CCOC(=O)c1cc(-c2csc(-c3ccnc(NCCc4cccs4)c3)n2)c(=O)[nH]c1C` here?
**A.** < 0.5 µM

**Q.** `CCOC(=O)c1cc(-c2csc(NC)n2)c(=O)[nH]c1C` was tested. Which IC50 did it give?
**A.** < 0.5 µM

**Q.** With `CCOC(=O)c1cc(-c2csc(C(C)(C)S(=O)(=O)c3ccccc3)n2)c(=O)[nH]c1C` as the compound, how does the IC50 read?
**A.** < 0.5 µM

**Q.** For `CCOC(=O)c1cc(-c2csc(CSc3ccccc3)n2)c(=O)[nH]c1C`, which IC50 is on record?
**A.** < 0.5 µM

**Q.** With `CCOC(=O)c1cc(-c2csc(-c3ccnc(NCC(C)C)c3)n2)c(=O)[nH]c1C` as the compound, how does the IC50 read?
**A.** < 0.5 µM

**Q.** For `Cc1[nH]c(=O)c(-c2csc(-c3ccncc3)n2)cc1Br`, which IC50 is on record?
**A.** < 0.5 µM

**Q.** Which IC50 does the source give for `CC(C)c1ccc(-c2csc(-c3ccncc3)n2)c(=O)[nH]1` here?
**A.** < 0.5 µM

**Q.** With `CCOC(=O)c1cc(-c2csc(CS(=O)(=O)c3cccs3)n2)c(=O)[nH]c1C(C)C` as the compound, how does the IC50 read?
**A.** < 0.5 µM

**Q.** `CCc1[nH]c(=O)c(-c2csc(-c3ccncc3)n2)cc1C(=O)OCCCN(CC)CC` was tested. Which IC50 did it give?
**A.** < 0.5 µM

**Q.** With `CCOC(=O)c1cc(-c2csc(-c3ccnc(NCCN(CC)CC)c3)n2)c(=O)[nH]c1C` as the compound, how does the IC50 read?
**A.** < 0.5 µM

**Q.** For `CCOC(=O)c1cc(-c2csc(-c3ccnc(NC)c3)n2)c(=O)[nH]c1C`, which IC50 is on record?
**A.** < 0.5 µM

**Q.** How did the IC50 turn out when `CCOC(=O)c1cc(-c2csc(CS(=O)(=O)c3ccccc3)n2)c(=O)[nH]c1CC` was run?
**A.** < 0.5 µM

**Q.** For `CCOC(=O)c1cc(-c2csc(-c3ccnc(N)c3)n2)c(=O)[nH]c1C`, which IC50 is on record?
**A.** < 0.5 µM

**Q.** For `CCOC(=O)c1cc(-c2csc(-c3ccncc3)n2)c(=O)[nH]c1COCc1ccccc1`, which IC50 is on record?
**A.** < 0.5 µM

**Q.** `CCc1ccc(-c2csc(-c3ccncc3)n2)c(=O)[nH]1` was tested. Which IC50 did it give?
**A.** < 0.5 µM

**Q.** `Cc1[nH]c(=O)c(-c2csc(-c3ccnc(NCc4ccccn4)c3)n2)cc1C(=O)NCc1ccccn1` was tested. Which IC50 did it give?
**A.** < 0.5 µM

**Q.** Which IC50 does the source give for `CCOC(=O)c1cc(-c2csc(-c3ccnc(NCCNC(C)=O)c3)n2)c(=O)[nH]c1C` here?
**A.** < 0.5 µM

**Q.** Which IC50 does the source give for `CCOC(=O)c1cc(-c2csc(-c3ccnc(NC)c3)n2)c(=O)[nH]c1C(C)C` here?
**A.** < 0.5 µM

**Q.** `CCCc1[nH]c(=O)c(-c2csc(CS(=O)(=O)c3cccs3)n2)cc1C(=O)OCC` was tested. Which IC50 did it give?
**A.** < 0.5 µM

**Q.** How did the IC50 turn out when `CCOC(=O)c1cc(-c2csc(CS(=O)(=O)c3ccccc3)n2)c(=O)[nH]c1COCc1ccccc1` was run?
**A.** < 0.5 µM

**Q.** How did the IC50 turn out when `CCCc1[nH]c(=O)c(-c2csc(-c3ccncc3)n2)cc1C(=O)OCC` was run?
**A.** < 0.5 µM

**Q.** How did the IC50 turn out when `CCOC(=O)c1cc(-c2csc(-c3ccnc(CC)c3)n2)c(=O)[nH]c1C` was run?
**A.** < 0.5 µM

**Q.** With `CCOC(=O)c1cc(-c2csc(-c3ccnc(Cl)c3)n2)c(=O)[nH]c1C` as the compound, how does the IC50 read?
**A.** < 0.5 µM

**Q.** Which IC50 does the source give for `CCOC(=O)c1cc(-c2csc(CS(=O)(=O)c3ccccc3)n2)c(=O)[nH]c1C1CC1` here?
**A.** < 0.5 µM

**Q.** How did the IC50 turn out when `CCOC(=O)c1cc(-c2csc(CS(=O)(=O)c3cccs3)n2)c(=O)[nH]c1C` was run?
**A.** < 0.5 µM

**Q.** Which IC50 does the source give for `CCOC(=O)c1cc(-c2csc(-c3c(Cl)cncc3Cl)n2)c(=O)[nH]c1C` here?
**A.** < 0.5 µM

**Q.** How did the IC50 turn out when `CCOC(=O)c1cc(-c2csc(-c3ccncc3)n2)c(=O)[nH]c1CC` was run?
**A.** < 0.5 µM

**Q.** How did the IC50 turn out when `CCOC(=O)c1cc(-c2csc(-c3ccnc(NCC(N)=O)c3)n2)c(=O)[nH]c1C` was run?
**A.** < 0.5 µM

**Q.** For `CCCc1[nH]c(=O)c(-c2csc(CS(=O)(=O)c3ccccc3)n2)cc1C(=O)OCC`, which IC50 is on record?
**A.** < 0.5 µM

**Q.** Which IC50 does the source give for `CCOC(=O)c1cc(-c2csc(-c3ccncc3)n2)c(=O)[nH]c1C` here?
**A.** < 0.5 µM

**Q.** `Cc1[nH]c(=O)c(-c2csc(-c3ccncc3)n2)cc1C(=O)OC(C)(C)C` was tested. Which IC50 did it give?
**A.** < 0.5 µM

**Q.** Which IC50 does the source give for `CCOC(=O)c1cc(-c2csc(CS(=O)(=O)c3cccs3)n2)c(=O)[nH]c1CC` here?
**A.** < 0.5 µM

**Q.** `CCOC(=O)c1cc(-c2csc(CS(=O)(=O)Cc3ccc(F)cc3)n2)c(=O)[nH]c1C` was tested. Which IC50 did it give?
**A.** < 0.5 µM

**Q.** With `CCOC(=O)c1cc(-c2csc(-c3ccnc(NCc4ccccn4)c3)n2)c(=O)[nH]c1C` as the compound, how does the IC50 read?
**A.** < 0.5 µM

**Q.** For `Cc1[nH]c(=O)c(-c2csc(-c3ccnc(NCC4CC4)c3)n2)cc1C(=O)NCC1CC1`, which IC50 is on record?
**A.** < 0.5 µM

**Q.** Which IC50 does the source give for `CCOC(=O)c1cc(-c2csc(-c3ccnc(NCc4ccco4)c3)n2)c(=O)[nH]c1C` here?
**A.** < 0.5 µM

**Q.** How did the IC50 turn out when `CCOC(=O)c1cc(-c2csc(CS(=O)(=O)c3ccccc3)n2)c(=O)[nH]c1C(C)C` was run?
**A.** < 0.5 µM

**Q.** Which IC50 does the source give for `CCOC(=O)c1cc(-c2csc(-c3ccncc3)n2)c(=O)[nH]c1C(C)C` here?
**A.** < 0.5 µM

**Q.** How did the IC50 turn out when `CCOC(=O)c1cc(-c2csc(CS(=O)(=O)c3ccccn3)n2)c(=O)[nH]c1C` was run?
**A.** < 0.5 µM

**Q.** How did the IC50 turn out when `CCOC(=O)c1cc(-c2csc(-c3ccnc(NCC4CCCC4)c3)n2)c(=O)[nH]c1C` was run?
**A.** < 0.5 µM

**Q.** With `CCOC(=O)c1cc(-c2csc(-c3ccnc(NCc4ccccc4)c3)n2)c(=O)[nH]c1C` as the compound, how does the IC50 read?
**A.** < 0.5 µM

**Q.** With `CCCCNc1cc(-c2nc(-c3cc(C(=O)OCC)c(C)[nH]c3=O)cs2)ccn1` as the compound, how does the IC50 read?
**A.** < 0.5 µM

**Q.** Which IC50 does the source give for `CCOC(=O)c1cc(-c2csc(-c3ccnc(NCc4cccnc4)c3)n2)c(=O)[nH]c1C` here?
**A.** < 0.5 µM

**Q.** Which IC50 does the source give for `CCOC(=O)c1cc(-c2csc(CS(=O)(=O)c3ccc(Cl)cc3)n2)c(=O)[nH]c1C` here?
**A.** < 0.5 µM

**Q.** `CCOC(=O)c1cc(-c2csc(CS(=O)(=O)c3ccccc3)n2)c(=O)[nH]c1C` was tested. Which IC50 did it give?
**A.** < 0.5 µM

**Q.** Which IC50 does the source give for `CCOC(=O)c1cc(-c2csc(-c3ccnc(NCC4CC4)c3)n2)c(=O)[nH]c1C` here?
**A.** < 0.5 µM

**Q.** For `CCN(CC)CCCOC(=O)c1cc(-c2csc(-c3ccncc3)n2)c(=O)[nH]c1C(C)C`, which IC50 is on record?
**A.** < 0.5 µM
